We go through four compounds from patent publication US20250228832A1, “METHODS FOR TREATING DISORDERS AMELIORATED BY MUSCARINIC RECEPTOR ACTIVATION” (KARUNA THERAPEUTICS, INC., priority 2022, published 2025).

SMILES strings stand for the structures. Read-outs that look alike come from different tables or passages of the source.

This assay addresses T1, human M4 receptor (Homo sapiens, UniProt P08173).
T1 construct: expressed in transfected cells
T1 sequence (P08173 1-479): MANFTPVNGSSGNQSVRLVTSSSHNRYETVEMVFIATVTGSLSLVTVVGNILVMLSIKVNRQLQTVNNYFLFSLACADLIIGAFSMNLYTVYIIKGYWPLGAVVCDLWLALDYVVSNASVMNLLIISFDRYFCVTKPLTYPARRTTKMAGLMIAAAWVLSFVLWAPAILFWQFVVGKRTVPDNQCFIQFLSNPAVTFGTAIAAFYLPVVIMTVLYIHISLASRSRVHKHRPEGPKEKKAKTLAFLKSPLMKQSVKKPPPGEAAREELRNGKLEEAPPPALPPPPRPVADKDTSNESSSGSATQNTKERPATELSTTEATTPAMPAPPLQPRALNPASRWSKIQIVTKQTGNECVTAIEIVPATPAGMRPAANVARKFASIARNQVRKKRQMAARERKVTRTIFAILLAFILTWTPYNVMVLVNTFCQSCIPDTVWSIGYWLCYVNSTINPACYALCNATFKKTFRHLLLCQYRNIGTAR
The assay is described as follows: SPA GTP (GTPgS) binding curve shift assay, M4. It counts as biochemical. Here is the method:
Membranes were prepared for GTPgS binding assays from CHO-K1 cells stably expressing human M2 or human M4 receptors. Cells were grown in 5-layer cell culture flasks. Cells were washed with 50 mL of PBS and then dissociated with 0.05% trypsin. Dissociated cells were then collected by centrifugation at 650×g for 8 min at 4° C. Pellets were rewashed in PBS by centrifugation and resuspended in 30 mL of 20 mM HEPES, 10 mM EDTA, pH 7.4. After sitting on ice for 30 min, membranes were collected by centrifugation at 50000×g for 15 min at 4° C., resuspended in 30 mL of 20 mM HEPES, 0.1 mM EDTA, pH 7.4, and collected again by centrifugation. Pellets were then washed twice by centrifugation in 30 mL of 20 mM HEPES, pH 7.4, and stored at −80° C. until the day of the assay. On the day of the assay, pellets were thawed on ice and resuspended in 1 mL of 20 mM HEPES, pH 7.4, 10 mM MgCl2, and 100 mM NaCl using Dounce homogenization.
According to Promega guidelines, membrane protein concentration was determined by BCA protein assay (Promega, Madison, WI).
On the day of the assay, serial dilutions of test PAM compounds were brought up in assay buffer (20 mM HEPES, 10 mM MgCl2; see Table 4 for NaCl concentrations) at four times the final assay concentration. […] of membrane homogenates (containing […] of membrane protein) were prepared in assay buffer supplemented with GDP at 4× final assay concentration (see Table 4 for GDP concentrations) and dispensed into 96 well polypropylene, U-bottom Greiner plates. Membrane plates were incubated for 10 min at room temperature with gentle shaking. Then, 25 μL of test compounds were added to assay plates. Plates were then incubated, with shaking, for an additional 10-15 min. Then, 25 μL of diluted agonists serially diluted in assay buffer at 4× final assay concentration was added to assay plates. Plates were then incubated, with shaking, for an additional 10-15 min. Next, […] of 0.4 nM ^35S-GTP (Perkin Elmer, Waltham, MA) in assay buffer was added to assay mixtures. The binding reaction was left on the shaker for 1 h at room temperature. Membranes in assay reactions were then transferred to GF/C filter plates (UniFilter, Perkin Elmer) and washed three times using FilterMate Harvester (Perkin Elmer) with cold assay buffer containing no GDP. Filter plates were then dried at 40° C. overnight, and […] of Beta Plate Scintillation liquid was added. Plates were top and bottom sealed before being read on the TopCount scintillation counter (Perkin Elmer, Waltham, MA).
Raw data for all assays was transmitted directly from plate readers into the Beacon database for processing. All assay plates contained positive and negative control wells for data normalization and scaling. […] All control wells contained DMSO at a final assay concentration that matched the test compound wells.
For GTPgS assays, the negative control wells were defined as 0% response. The highest response in a plate was scaled to 1, representing 100% response. Data from test compound wells was scaled to these controls and are reported as % control values. This was done to allow for subsequent GraphPad cooperativity analysis, setting the maximal response at no more than 1.

Where [1] appears, read: Emraclidine concentration 41.2 nM, read-out: Emax.
[2] abbreviates: Emraclidine concentration 123 nM, read-out: Emax.
[3] abbreviates: Emraclidine concentration 370 nM.
[4] abbreviates: Emraclidine concentration 1110 nM, read-out: Emax.
The mark [5] stands for this setting: Emraclidine concentration 3330 nM, read-out: Emax.
Where [6] appears, read: MK-4710 concentration 41.2 nM, read-out: Emax.
Where [7] appears, read: MK-4710 concentration 123 nM, read-out: Emax.
The mark [8] stands for this setting: MK-4710 concentration 1110 nM, read-out: Emax.
[9] abbreviates: MK-4710 concentration 3330 nM, read-out: Emax.

Turning to `CCCCCCCOc1nsnc1C1=CCCCN1C` [KTX-593, 3-(heptyloxy)-4-(1-methyl-1,4,5,6-tetrahydropyridin-2-yl)-1,2,5-thiadiazole], the 50% effective concentration (EC50) (in general, the concentration giving half of the maximal effect) runs as follows: (Emraclidine concentration 0 nM) 12.7 nM; (MK-4710 concentration 0 nM) 44.7 nM. For the same compound, the Emax (in general, the maximal effect, on the per cent scale that the assay sets) came to 14.3% (Emraclidine concentration 0 nM); 24.5% under setting [1]; 43.9% under setting [2]; 76.8% under setting [4]; 84% under setting [5]; 14.0% (MK-4710 concentration 0 nM). The maximal effect (Emax) stood at 35.9% under setting [6], 41.8% under setting [7], 80% under setting [8] and 88.1% under setting [9]. The Emax at […] came out at 60.1% under setting [3], 24.2% (Emraclidine concentration […]), 59.7% (MK-4710 concentration 370 nM) and 26% (MK-4710 concentration […]). Further, the “α (cooperativity, affinity shift)” value was 2.4 (M4 PAM Emraclidine) and 1.0 (M4 PAM MK-4710). Also, the “β (cooperativity, efficacy shift)” value (M4 PAM Emraclidine) worked out at 56.3 and the “β (cooperativity, efficacy shift)” value (M4 PAM MK-4710) turned out to be 1051018.0. The “τ (agonist pharmacology)” value (M4 PAM Emraclidine) worked out at 1.5 and the “τ (agonist pharmacology)” value (M4 PAM MK-4710) is reported as 381.2.

With `CC1OC2(CS1)CN1CCC2CC1` (stereo not drawn) [cevimeline, Cevimeline, reference compound], the EC50 runs as follows: (Emraclidine concentration 0 nM) 1300 nM; (MK-4710 concentration 0 nM) 3010 nM. The Emax is, setting by setting: (Emraclidine concentration 0 nM) 4.0%; under setting [1], 13.2%; under setting [2], 28%; under setting [4], 73.3%; under setting [5], 86.3%; (MK-4710 concentration 0 nM) 6.4%. Besides, the Emax by setting is: under setting [6], 20.2%; under setting [7], 26.6%; under setting [8], 68.1%; under setting [9], 83.6%. Also, the Emax at […] turned out to be 49.2% under setting [3], 10.6% (Emraclidine concentration […]), 42.1% (MK-4710 concentration 370 nM) and 14.4% (MK-4710 concentration […]). Besides, the “α (cooperativity, affinity shift)” value by setting is: (M4 PAM Emraclidine) 1.0; (M4 PAM MK-4710) 1.0. In addition, the “β (cooperativity, efficacy shift)” value (M4 PAM Emraclidine) worked out at 57.2 and the “β (cooperativity, efficacy shift)” value (M4 PAM MK-4710) is reported as 136.5. Further, the “τ (agonist pharmacology)” value is, setting by setting: (M4 PAM Emraclidine) 0.4; (M4 PAM MK-4710) 0.1.

Consider `CCCCCOc1nsnc1C1=CCCCN1C` [KTX-517, 3-(1-methyl-1,4,5,6-tetrahydropyridin-2-yl)-4-(pentyloxy)-1,2,5-thiadiazole], for which the EC50 came out at 1.6 nM (Emraclidine concentration 0 nM); 548 nM (MK-4710 concentration 0 nM); 2.3 nM (MK-4710 concentration 41.2 nM); 1.4 nM (MK-4710 concentration 123 nM); 2.1 nM (MK-4710 concentration 370 nM); 2.3 nM (MK-4710 concentration 1110 nM). The EC50 runs as follows: (MK-4710 concentration 3330 nM) 1.5 nM; (MK-4710 concentration […]) 8.7 nM. Besides, the Emax (Emraclidine concentration 0 nM) is on record as 2.6%; the Emax under setting [1] came to 17.8%; the maximal effect (Emax) under setting [2] stood at 29.6%; the Emax under setting [4] amounted to 62.4%; the Emax under setting [5] is 66.8%; the Emax (MK-4710 concentration 0 nM) came to 12.6%. The Emax by setting is: under setting [6], 27.3%; under setting [7], 34.3%; under setting [8], 75.1%; under setting [9], 87.1%. Also, the Emax at […] under setting [3] is 46.5%, the Emax at […] (Emraclidine concentration […]) is 10.6%, the Emax at […] (MK-4710 concentration 370 nM) amounted to 53.4% and the Emax at […] (MK-4710 concentration […]) is 20.4%. Moreover, the “α (cooperativity, affinity shift)” value runs as follows: (M4 PAM Emraclidine) 3.0; (M4 PAM MK-4710) 1.0. Further, the “β (cooperativity, efficacy shift)” value was determined as 32.3 (M4 PAM Emraclidine) and 1395.0 (M4 PAM MK-4710). For the same compound, the “τ (agonist pharmacology)” value is, setting by setting: (M4 PAM Emraclidine) 0.6; (M4 PAM MK-4710) 0.8.

`CCCCCCOc1nsnc1C1=CCCN(C)C1` [xanomeline, reference compound]: the Emax amounted to 27.2% (Emraclidine concentration 0 nM); 31.9% under setting [1]; 38.1% under setting [2]; 78.7% under setting [4]; 89.4% under setting [5]; 19.7% (MK-4710 concentration 0 nM). The Emax turned out to be 29.7% under setting [6], 38.5% under setting [7], 70.6% under setting [8] and 80.5% under setting [9]. Moreover, the maximum response (Emax) at […] turned out to be 60% under setting [3], 28.7% (Emraclidine concentration […]), 55% (MK-4710 concentration 370 nM) and 25.1% (MK-4710 concentration […]). Further, the “τ (agonist pharmacology)” value (M4 PAM Emraclidine) was 1.4.
